In ChEMBL document CHEMBL3352643, “Synthesis and antiproliferative activity of 6-phenylaminopurines” (Eur J Med Chem, 2014):

How the values were obtained:
Type in all cases: functional
[1] = system: HeLa; assay: Induction of cell cycle arrest in human HeLa cells assessed as accumulation at G1 phase at 100 uM after 24 hrs by propidium iodide staining based flow cytometry (reference value: 45%)
[2] = Antiproliferative activity against human HMEC1 cells assessed as inhibition of cell proliferation after 4 days by Coulter counter based cell counting method; conditions: HMEC-1, 96 h
[3] = system: HeLa; assay: Induction of cell cycle arrest in human HeLa cells assessed as accumulation at G2/M phase at 20 uM after 24 hrs by propidium iodide staining based flow cytometry (reference value: 31%)
[4] = system: L1210; assay: Antiproliferative activity against mouse L1210 assessed as inhibition of cell proliferation after 48 hrs by Coulter counter based cell counting method; conditions: L1210, 48 h
[5] = system: HeLa; assay: Antiproliferative activity against human HeLa cells assessed as inhibition of cell proliferation after 4 days by Coulter counter based cell counting method; conditions: 96 h
[6] = system: HeLa; assay: Induction of cell cycle arrest in human HeLa cells assessed as accumulation at S phase at 20 uM after 24 hrs by propidium iodide staining based flow cytometry (reference value: 24%)
[7] = Antiproliferative activity against BAEC assessed as inhibition of cell proliferation after 3 days by Coulter counter based cell counting method; conditions: Bos taurus, 72 h
[8] = system: CCRF-CEM; assay: Antiproliferative activity against human CEM cells assessed as inhibition of cell proliferation after 96 hrs by Coulter counter based cell counting method
[9] = system: HeLa; assay: Induction of cell cycle arrest in human HeLa cells assessed as accumulation at subG1 phase at 100 uM after 24 hrs by propidium iodide staining based flow cytometry (reference value: 1%)
[10] = Antiproliferative activity against mouse MBEC assessed as inhibition of cell proliferation after 3 days by Coulter counter based cell counting method; conditions: 72 h
[11] = system: HeLa; assay: Induction of cell cycle arrest in human HeLa cells assessed as accumulation at G2/M phase at 100 uM after 24 hrs by propidium iodide staining based flow cytometry (reference value: 31%)
[12] = system: HeLa; assay: Induction of cell cycle arrest in human HeLa cells assessed as accumulation at subG1 phase at 20 uM after 24 hrs by propidium iodide staining based flow cytometry (reference value: 1%)
[13] = system: HeLa; assay: Induction of cell cycle arrest in human HeLa cells assessed as accumulation at S phase at 100 uM after 24 hrs by propidium iodide staining based flow cytometry (reference value: 24%)
[14] = system: HeLa; assay: Induction of cell cycle arrest in human HeLa cells assessed as accumulation at G1 phase at 20 uM after 24 hrs by propidium iodide staining based flow cytometry (reference value: 45%)
[15] = system: HeLa; assay: Induction of cell cycle arrest in human HeLa cells assessed as accumulation at subG1 phase at 4 uM after 24 hrs by propidium iodide staining based flow cytometry (reference value: 1%)
[16] = system: HeLa; assay: Induction of cell cycle arrest in human HeLa cells assessed as accumulation at G1 phase at 4 uM after 24 hrs by propidium iodide staining based flow cytometry (reference value: 45%)
[17] = system: HeLa; assay: Induction of cell cycle arrest in human HeLa cells assessed as accumulation at S phase at 4 uM after 24 hrs by propidium iodide staining based flow cytometry (reference value: 24%)
[18] = system: HeLa; assay: Induction of cell cycle arrest in human HeLa cells assessed as accumulation at G2/M phase at 4 uM after 24 hrs by propidium iodide staining based flow cytometry (reference value: 31%)
[19] = system: HeLa; assay: Induction of cell cycle arrest in human HeLa cells assessed as accumulation at subG1 phase at 0.1 uM after 24 hrs by propidium iodide staining based flow cytometry (reference value: 1%)
[20] = system: HeLa; assay: Induction of cell cycle arrest in human HeLa cells assessed as accumulation at G1 phase at 0.1 uM after 24 hrs by propidium iodide staining based flow cytometry (reference value: 45%)
[21] = system: HeLa; assay: Induction of cell cycle arrest in human HeLa cells assessed as accumulation at G2/M phase at 0.1 uM after 24 hrs by propidium iodide staining based flow cytometry (reference value: 31%)
[22] = system: HeLa; assay: Induction of cell cycle arrest in human HeLa cells assessed as accumulation at S phase at 0.1 uM after 24 hrs by propidium iodide staining based flow cytometry (reference value: 24%)

| SMILES | Activity [1] [%] | IC50 [2] [µM] | Activity [3] [%] | IC50 ([4]; read-out: IC50) [µM] | IC50 [5] [µM] | Activity [6] [%] | IC50 [7] [µM] | IC50 [8] [µM] | Activity [9] [%] | IC50 [10] [µM] | Activity [11] [%] | Activity [12] [%] | Activity [13] [%] | Activity [14] [%] | also measured |
| --- | --- | --- | --- | --- | --- | --- | --- | --- | --- | --- | --- | --- | --- | --- | --- |
| COc1ccc(N(C)c2nc(C)nc3c2nc(C)n3C)cc1 | 8 | 7.3 | 25 | 19 | 4.5 | 29 | 7.4 | 6.2 | 14 | 8.7 | 63 | 39 | 15 | 18 |  |
| COc1ccc(Nc2nc(C)nc3c2nc(C)n3C)cc1 |  | ≥ 100 |  | ≥ 250 | 197 |  | ≥ 100 | > 250 |  | ≥ 100 |  |  |  |  |  |
| COc1cccc(N(C)c2nc(C)nc3c2nc(C)n3C)c1 |  | ≥ 100 |  | > 250 | > 250 |  | ≥ 100 | > 250 |  | ≥ 100 |  |  |  |  |  |
| Cc1ccc(N(C)c2nc(C)nc3c2nc(C)n3C)cc1 |  | > 100 |  | ≥ 250 | ≥ 250 |  | > 100 | 164 |  | > 100 |  |  |  |  |  |
| Cc1nc(N(C)c2ccc(OC(F)(F)F)cc2)c2nc(C)n(C)c2n1 |  | > 100 |  | > 250 | 188 |  | > 100 | 132 |  | > 100 |  |  |  |  |  |
| COc1ccc(N(C)c2ncnc3c2nc(C)n3C)cc1 |  | ≥ 100 |  | > 250 | > 250 |  | ≥ 100 | > 250 |  | ≥ 100 |  |  |  |  |  |
| COc1ccc(N(C)c2nc(C)nc3c2ncn3C)cc1 |  | 9.2 |  | 30 | 22 |  | 9.3 | 21 |  | 15 |  |  |  |  |  |
| COc1ccc(N(C)c2nc(C)nc3[nH]c(C)nc23)cc1 | 6 | 7.1 | 31 | 229 | 14 | 27 | 8.9 | 23 | 11 | 8.9 | 68 | 5 | 15 | 39 |  |
| CCN(c1ccc(OC)cc1)c1nc(C)nc2c1nc(C)n2C | 12 | 8.8 | 28 | 35 | 20 | 27 | 11 | 16 | 36 | 15 | 34 | 6 | 18 | 39 |  |
| COc1ccc2c(c1)CCCN2c1nc(C)nc2c1nc(C)n2C | 3 | 2.3 | 80 | 5.1 | 4.4 | 8 | 2.4 | 3.5 | 8 | 4.4 | 79 | 7 | 8 | 3 | Activity [15]: 20%; Activity [16]: 35%; Activity [17]: 18%; Activity [18]: 27% |
| COc1cc2c(c(OC)c1OC)-c1ccc(OC)c(=O)cc1[C@@H](NC(C)=O)CC2 [COLCHICINE] |  |  |  |  |  |  | 0.0069 | 0.031 |  | 0.031 |  |  |  |  | Activity [19]: 6%; Activity [20]: 5%; IC50 [4]: 0.014 µM; Activity [21]: 80%; Activity [22]: 10% |
